In PubChem BioAssay (NCI) one finds GI50 and TGI data, which are given here for eleven compounds.

Test systems include BT-549 breast; CCRF-CEM leukemia; HT29 colon; MALME-3M melanoma; NCI-H23 lung; NCI/ADR-RES ovarian; SN12C renal; SNB-19 CNS; HCT-116 colon; OVCAR-5 ovarian.
Common to all, as to assay: NCI-60 cell line screen, 48 h

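Grown in 96-well plates, cells were treated for 48 hours with each compound at five concentrations. Insufficient inhibition: endpoint recorded as highest concentration tested. GI50: concentration for 50% inhibition of growth. At the TGI there is no net growth.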

Consider `C#CCOc1cccc(-c2ncc3cc(NC(=O)CCl)ccc3n2)c1`, for which the GI50 in the experiment with BT-549 breast was 1.47 µM; with CCRF-CEM leukemia, 0.252 µM; in the experiment on HT29 colon, 2.02 µM; with MALME-3M melanoma, 1.65 µM; in the experiment on NCI-H23 lung it was 1.87 µM; in the experiment with NCI/ADR-RES ovarian, 3.07 µM. The GI50 in the experiment on SN12C renal was 1.44 µM; in the experiment with SNB-19 CNS it was 1.76 µM. Besides, the TGI is 3.18 µM in the experiment on BT-549 breast; 0.994 µM in the experiment with CCRF-CEM leukemia; 3.99 µM in the experiment with HT29 colon; 3.29 µM in the experiment with MALME-3M melanoma; 4.71 µM in the experiment with NCI-H23 lung; more than 100 µM in the experiment on NCI/ADR-RES ovarian. Besides, the values for the TGI with SN12C renal and in the experiment on SNB-19 CNS were 2.93 µM and 3.45 µM, respectively.

As to `N#Cc1c(N)nc(N2CCOCC2)c(C#N)c1-c1ccncc1`, the GI50 in the experiment on BT-549 breast is 95.8 µM; with CCRF-CEM leukemia it was more than 100 µM; in the experiment on HCT-116 colon, more than 100 µM; in the experiment on HT29 colon it was more than 100 µM; in the experiment on MALME-3M melanoma it was 9.04 µM; in the experiment on NCI/ADR-RES ovarian it was more than 100 µM. Besides, the GI50 with OVCAR-5 ovarian is 27 µM; with SN12C renal it was 88.6 µM; in the experiment on SNB-19 CNS, more than 100 µM. The TGI in the experiment on BT-549 breast is more than 100 µM; in the experiment with CCRF-CEM leukemia, more than 100 µM; in the experiment with HCT-116 colon, more than 100 µM; with HT29 colon it was more than 100 µM; in the experiment on MALME-3M melanoma it was 98.1 µM; in the experiment on NCI/ADR-RES ovarian, more than 100 µM. Further, the TGI with OVCAR-5 ovarian, with SN12C renal and in the experiment on SNB-19 CNS was more than 100 µM in each case.

For `CC1(C)CC(=O)C(C=NC(=S)c2ccccc2)=C(O)C1`, the TGI in the experiment with BT-549 breast, with CCRF-CEM leukemia, in the experiment on HCT-116 colon, in the experiment with HT29 colon, in the experiment with NCI-H23 lung and in the experiment with NCI/ADR-RES ovarian was more than 100 µM each time. Further, the TGI in the experiment on OVCAR-5 ovarian, in the experiment on SN12C renal and in the experiment on SNB-19 CNS was more than 100 µM in each case.

Take `NC(=O)/C=C/C(=O)c1c(Cl)cccc1Cl`: the GI50 in the experiment on BT-549 breast is 1.59 µM; in the experiment with HCT-116 colon it was 0.476 µM; in the experiment with HT29 colon, 1.55 µM; in the experiment on MALME-3M melanoma it was 0.358 µM; in the experiment on NCI-H23 lung, 1.53 µM; in the experiment with NCI/ADR-RES ovarian it was 1.77 µM. The GI50 is 1.74 µM with OVCAR-5 ovarian, 1.4 µM with SN12C renal and 1.75 µM with SNB-19 CNS. Besides, the TGI with BT-549 breast was 3.03 µM; in the experiment with HT29 colon, more than 100 µM; in the experiment with MALME-3M melanoma it was 1.71 µM; in the experiment on NCI-H23 lung, 3.01 µM; in the experiment with NCI/ADR-RES ovarian, 3.44 µM; in the experiment on OVCAR-5 ovarian, 3.41 µM. The TGI in the experiment with SN12C renal stood at 2.69 µM; with SNB-19 CNS, 3.38 µM.

Take `C(=NCCN1CCOCC1)=NC1CCCCC1`: the TGI in the experiment on BT-549 breast, in the experiment on HCT-116 colon, in the experiment with HT29 colon, in the experiment on MALME-3M melanoma, in the experiment on NCI-H23 lung and in the experiment on NCI/ADR-RES ovarian was more than 100 µM in each case. For the same compound, the TGI with OVCAR-5 ovarian, in the experiment with SN12C renal and in the experiment with SNB-19 CNS was more than 100 µM throughout.

Turning to `CC(=O)CCn1c(=S)sc2ccccc21`, the TGI in the experiment on BT-549 breast, in the experiment with CCRF-CEM leukemia, in the experiment on HCT-116 colon, in the experiment with HT29 colon, in the experiment on NCI-H23 lung and in the experiment with NCI/ADR-RES ovarian was more than 100 µM in each case. Besides, the TGI in the experiment on OVCAR-5 ovarian, in the experiment on SN12C renal and in the experiment with SNB-19 CNS was more than 100 µM each time.

For the compound `NC(N)=N/N=C/c1c(-c2ccsc2)nc2sccn12`, the GI50 in the experiment with BT-549 breast was 22.3 µM; with CCRF-CEM leukemia, 1.48 µM; with HCT-116 colon, 13.7 µM; in the experiment with HT29 colon, 11.6 µM; in the experiment on NCI-H23 lung, 13.5 µM; in the experiment with NCI/ADR-RES ovarian, 16.9 µM. The GI50 was 16.6 µM in the experiment on OVCAR-5 ovarian, 15.7 µM with SN12C renal and 16.7 µM in the experiment with SNB-19 CNS. Further, the TGI in the experiment on BT-549 breast was 38.1 µM; with CCRF-CEM leukemia it was 6.07 µM; in the experiment on HCT-116 colon it was 27.2 µM; in the experiment on HT29 colon, 25.3 µM; in the experiment on NCI-H23 lung, 26.4 µM; in the experiment with NCI/ADR-RES ovarian, 32.7 µM. For the same compound, the TGI with OVCAR-5 ovarian came out at 30.3 µM; in the experiment on SN12C renal, 29.7 µM; in the experiment on SNB-19 CNS, 32.6 µM.

`CCOC(=O)C(C#N)C1=CC(=O)C(=O)c2ccc(OC)cc21` (stereo not drawn): the TGI is more than 100 µM with CCRF-CEM leukemia; 44.8 µM in the experiment on HCT-116 colon; 94.2 µM in the experiment with HT29 colon; 31 µM in the experiment on MALME-3M melanoma; 30.6 µM in the experiment with NCI-H23 lung; 51.3 µM in the experiment on NCI/ADR-RES ovarian. For the same compound, the values for the TGI in the experiment with OVCAR-5 ovarian, with SN12C renal and with SNB-19 CNS were 40.5 µM, 33.8 µM and 54.8 µM, respectively.

On to `NC(=S)N/N=C/C(=O)O`, for which the GI50 with BT-549 breast was more than 100 µM; in the experiment on CCRF-CEM leukemia, 65.4 µM; in the experiment with HCT-116 colon it was 14.7 µM; in the experiment with HT29 colon, more than 100 µM; in the experiment with NCI-H23 lung, more than 100 µM; in the experiment with NCI/ADR-RES ovarian, 96.3 µM. For the same compound, the GI50 in the experiment with OVCAR-5 ovarian, with SN12C renal and with SNB-19 CNS was more than 100 µM throughout. Moreover, the TGI in the experiment with BT-549 breast, in the experiment with CCRF-CEM leukemia, in the experiment on HCT-116 colon, in the experiment with HT29 colon, in the experiment with NCI-H23 lung and in the experiment with NCI/ADR-RES ovarian was more than 100 µM in each case. The TGI with OVCAR-5 ovarian, in the experiment on SN12C renal and in the experiment on SNB-19 CNS was more than 100 µM in each case.

As to `CC1=C(C(=O)Nc2ccc(F)c(Cl)c2)C(c2ccccc2O)NC(=S)N1` (stereo not drawn), the GI50 is 19.2 µM with BT-549 breast; more than 50 µM with HCT-116 colon; more than 50 µM in the experiment with NCI/ADR-RES ovarian; more than 50 µM in the experiment with OVCAR-5 ovarian; more than 50 µM in the experiment with SN12C renal; more than 50 µM in the experiment on SNB-19 CNS. The TGI is 49.4 µM with BT-549 breast; more than 50 µM in the experiment with HCT-116 colon; more than 50 µM in the experiment on NCI/ADR-RES ovarian; more than 50 µM in the experiment with OVCAR-5 ovarian; more than 50 µM with SN12C renal; more than 50 µM in the experiment with SNB-19 CNS.

On to `Cc1ccc(S(=O)(=O)N(C=O)N=C2CCN(Cc3ccccc3)CC2)cc1`, for which the TGI with CCRF-CEM leukemia, in the experiment with HCT-116 colon, in the experiment with HT29 colon, in the experiment on MALME-3M melanoma, with NCI-H23 lung and in the experiment on OVCAR-5 ovarian was more than 100 µM each time. The TGI in the experiment with SN12C renal and in the experiment with SNB-19 CNS was more than 100 µM each time.
